Laboratory results reported in US20150164907A1, “COMPOSITIONS AND METHODS FOR TREATING DISEASE” (ANGION BIOMEDICA CORP., priority 2013, published 2015).
Where two headings read alike, the source gives them in different places.

System: SK-BR-3 breast cancer cells
Assay: Proliferation of SK-BR-3 breast cancer cells, checkerboard design, Cell Titer Glo after 7 days
Type: cell-based
Details: for IC50: Homo sapiens
Description: The effect of ATRA in combination with GDC-0941 or NVP-BEZ235 on the proliferation of SK-BR-3 breast cancer cells was evaluated. […] To test the combination of ATRA and PI3Km/TOR inhibitors, cells were plated in a 96-well plate and treated with compounds in a “checkerboard” design. After 7 days the cell proliferation was determined using the Cell Titer Glo reagent (Promega). […] The bliss additivity model predicts the shape of the curve and magnitude of growth inhibition if the effects of two compounds is additive.
Another method to determine the interaction between two compounds is the combination index (CI) method, which can be calculated by the computer program Calcusyn.

[1] = SK-BR-3, 168 h, in the absence of ATRA, 7 days, read-out: estimated IC50, proliferation of SK-BR-3 growth
[2] = SK-BR-3, 168 h, in the presence of 10 nM ATRA, 7 days, read-out: IC50, proliferation of SK-BR-3 cells

Row | IC50 (SK-BR-3, ATRA alone, read-out: estimated IC50, proliferation of SK-BR-3 cells) | IC50 [1] | IC50 [2] | Compound | inhibition of cell proliferation by ATRA by itself (10 nM ATRA alone)
1 | 40 nM |  |  | CC1=C(/C=C/C(C)=C/C=C/C(C)=C/C(=O)O)C(C)(C)CCC1 [ATRA, all-trans retinoic acid] | only mildly inhibited cell proliferation
2 |  | 126 nM | 35 nM | CS(=O)(=O)N1CCN(Cc2cc3nc(-c4cccc5[nH]ncc45)nc(N4CCOCC4)c3s2)CC1 [GDC-0941, 2-(1H-indazol-4-yl)-6-(4-methanesulfonyl-piperazin-1-ylmethyl)-4-morpholin-4-yl-thieno[3,2-d]pyrimidine] | 
3 |  | 145 nM | 57 nM | Cn1c(=O)n(-c2ccc(C(C)(C)C#N)cc2)c2c3cc(-c4cnc5ccccc5c4)ccc3ncc21 [NVP-BEZ235] | 
